IC50 data for 27 compounds are collected here from patent US20240043427A1 (Gilead Sciences, Inc., priority 2020, published 2024).

The target in this assay is CD73 (Homo sapiens (Human), UniProt P21589). It counts as biochemical. Conditions: 1 mM NaH2PO4 in enzyme buffer, CD73 0.3 nM, AMP 15 uM.
CD73, sequence (P21589 27-574): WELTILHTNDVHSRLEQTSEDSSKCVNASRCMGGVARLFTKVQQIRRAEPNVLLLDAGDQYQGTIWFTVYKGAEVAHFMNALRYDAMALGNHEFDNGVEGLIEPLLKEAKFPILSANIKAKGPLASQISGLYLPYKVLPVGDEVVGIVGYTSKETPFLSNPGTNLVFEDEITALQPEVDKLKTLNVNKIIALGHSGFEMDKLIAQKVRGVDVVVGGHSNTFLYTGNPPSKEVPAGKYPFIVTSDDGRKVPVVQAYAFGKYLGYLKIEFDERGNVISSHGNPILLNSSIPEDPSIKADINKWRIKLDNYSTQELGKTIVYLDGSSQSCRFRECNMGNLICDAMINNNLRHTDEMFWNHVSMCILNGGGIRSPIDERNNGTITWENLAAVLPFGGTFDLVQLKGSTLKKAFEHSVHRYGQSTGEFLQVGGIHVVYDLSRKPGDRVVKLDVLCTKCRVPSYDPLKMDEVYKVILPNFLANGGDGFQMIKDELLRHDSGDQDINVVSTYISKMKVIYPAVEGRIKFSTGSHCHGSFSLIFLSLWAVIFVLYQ
Take `O=c1[nH]cc(-c2cc([C@H]3C[C@@H]3c3ccc(OC(F)(F)F)cn3)c3nccn3n2)c(=O)[nH]1` (racemic) [Example 372, 5-(8-((1S,2S)-2-(5-(trifluoromethoxy)pyridin-2-yl)cyclopropyl)imidazo[1,2-b]pyridazin-6-yl)pyrimidine-2,4(1H,3H)-dione]: the IC50 (usually the concentration that inhibits the measured activity by half) came out at 3.4 nM. The compound `O=c1[nH]cc(-c2cc([C@H]3C[C@@H]3c3cc4c(cn3)cnn4CC(F)(F)F)c3ncc(Cl)n3n2)c(=O)[nH]1` (racemic) [Example 471, 5-(3-chloro-8-((1S,2S)-2-(1-(2,2,2-trifluoroethyl)-1H-pyrazolo[4,3-c]pyridin-6-yl)cyclopropyl)imidazo[1,2-b]pyridazin-6-yl)pyrimidine-2,4(1H,3H)-dione] gave an IC50 of 0.7 nM.

`O=c1[nH]cc(-c2cc([C@H]3C[C@@H]3c3ccc4c(C5CC5)nn(CC(F)(F)F)c4c3)c3nccn3n2)c(=O)[nH]1` (racemic) [Example 128, 5-(8-((1S,2S)-2-(3-cyclopropyl-1-(2,2,2-trifluoroethyl)-1H-indazol-6-yl)cyclopropyl)imidazo[1,2-b]pyridazin-6-yl)pyrimidine-2,4(1H,3H)-dione] yielded an IC50 of 1.84 nM.

For `O=c1[nH]cc(-c2cc([C@H]3C[C@@H]3c3ccc4cnn(CC5CC5(F)F)c4c3)c3nccn3n2)c(=O)[nH]1` (mixture of isomers) [Example 118, 5-(8-((1S,2S)-2-(1-((2,2-difluorocyclopropyl)methyl)-1H-indazol-6-yl)cyclopropyl)imidazo[1,2-b]pyridazin-6-yl)pyrimidine-2,4(1H,3H)-dione], the 50% inhibitory concentration (IC50) worked out at 0.79 nM. For `O=c1[nH]cc(-c2cc(N3CCC(CC(F)(F)F)C3)c3nccn3n2)c(=O)[nH]1` (racemic) [Example 452, 5-(8-(3-(2,2,2-trifluoroethyl)pyrrolidin-1-yl)imidazo[1,2-b]pyridazin-6-yl)pyrimidine-2,4(1H,3H)-dione], half-maximal inhibition (IC50) required 95.3 nM. Compound `O=c1[nH]cc(-c2cc([C@H]3C[C@@H]3c3ccccc3OC(F)(F)F)c3nccn3n2)c(=O)[nH]1` (racemic) [Example 309, 5-(8-((1S,2S)-2-(2-(trifluoromethoxy)phenyl)cyclopropyl)imidazo[1,2-b]pyridazin-6-yl)pyrimidine-2,4(1H,3H)-dione] had an IC50 of 42.3 nM. `CC1(C)C(=O)N(CC(F)(F)F)c2cc([C@H]3C[C@@H]3c3cc(-c4c[nH]c(=O)[nH]c4=O)nn4ccnc34)ncc21` (racemic) [Example 718, 5-[8-[(1S,2S)-2-[3,3-dimethyl-2-oxo-1-(2,2,2-trifluoroethyl)pyrrolo[3,2-c]pyridin-6-yl]cyclopropyl]imidazo[1,2-b]pyridazin-6-yl]-1H-pyrimidine-2,4-dione] returned a concentration for half-maximal inhibition (IC50) of 3.07 nM.

The compound `O=C(c1ccc([C@H]2C[C@@H]2c2cc(-c3c[nH]c(=O)[nH]c3=O)nn3ccnc23)cc1)N1C[C@@H](F)[C@@H](F)C1` (racemic) [Example 301, 5-(8-((1S,2S)-2-(4-((3S,4R)-3,4-difluoropyrrolidine-1-carbonyl)phenyl)cyclopropyl)imidazo[1,2-b]pyridazin-6-yl)pyrimidine-2,4(1H,3H)-dione] came in with an IC50 of 4.45 nM. As to `N#Cc1ccc([C@H]2C[C@@H]2c2cc(-c3c[nH]c(=O)[nH]c3=O)nn3ccnc23)c(F)c1` (racemic) [Example 407, 4-((1S,2S)-2-(6-(2,4-dioxo-1,2,3,4-tetrahydropyrimidin-5-yl)imidazo[1,2-b]pyridazin-8-yl)cyclopropyl)-3-fluorobenzonitrile], the 50% inhibitory concentration (IC50) is 1.9 nM.

`O=c1[nH]cc(-c2cc([C@H]3C[C@@H]3c3ccc4c(c3)OC(F)(F)O4)c3ncc(F)n3n2)c(=O)[nH]1` (racemic) [Example 278, 5-(8-((1S,2S)-2-(2,2-difluorobenzo[d][1,3]dioxol-5-yl)cyclopropyl)-3-fluoroimidazo[1,2-b]pyridazin-6-yl)pyrimidine-2,4(1H,3H)-dione] yielded an IC50 of 3.69 nM. The compound `O=c1[nH]cc(-c2cc([C@H]3C[C@@H]3c3cccc4ccncc34)c3nccn3n2)c(=O)[nH]1` (racemic) [Example 166, 5-(8-((1S,2S)-2-(isoquinolin-8-yl)cyclopropyl)imidazo[1,2-b]pyridazin-6-yl)pyrimidine-2,4(1H,3H)-dione] gave an IC50 of 43 nM. This IC50 lies about 12-fold higher than the previous one. For the compound `O=c1[nH]cc(-c2cc([C@H]3C[C@@H]3c3ncc(C(F)(F)F)cn3)c3ncc(F)n3n2)c(=O)[nH]1` (racemic) [Example 378, 5-(3-fluoro-8-((1S,2S)-2-(5-(trifluoromethyl)pyrimidin-2-yl)cyclopropyl)imidazo[1,2-b]pyridazin-6-yl)pyrimidine-2,4(1H,3H)-dione], the IC50 turned out to be 6.45 nM. `O=c1[nH]cc(-c2cc([C@H]3C[C@@H]3c3cncc(F)c3)c3nccn3n2)c(=O)[nH]1` (racemic) [Example 164, 5-(8-((1S,2S)-2-(5-fluoropyridin-3-yl)cyclopropyl)imidazo[1,2-b]pyridazin-6-yl)pyrimidine-2,4(1H,3H)-dione] displayed a half-maximal inhibitory concentration (IC50) of 3.58 nM. This IC50 lies about 1.8-fold lower than the previous one. The compound `O=c1[nH]cc(-c2cc([C@H]3C[C@@H]3c3cnn(C(F)F)c3)c3ncc(F)n3n2)c(=O)[nH]1` [Example 371, 5-(8-((1S,2S)-2-(1-(difluoromethyl)-1H-pyrazol-4-yl)cyclopropyl)-3-fluoroimidazo[1,2-b]pyridazin-6-yl)pyrimidine-2,4(1H,3H)-dione] yielded an IC50 of 4.95 nM. With `O=C(c1cccc([C@H]2C[C@@H]2c2cc(-c3c[nH]c(=O)[nH]c3=O)nn3ccnc23)c1)N1CC(F)(F)C(F)(F)C1` (racemic) [Example 304, 5-(8-((1S,2S)-2-(3-(3,3,4,4-tetrafluoropyrrolidine-1-carbonyl)phenyl)cyclopropyl)imidazo[1,2-b]pyridazin-6-yl)pyrimidine-2,4(1H,3H)-dione] the figure was 3.59 nM. The compound `O=c1[nH]cc(-c2cc([C@H]3C[C@@H]3c3ccc(C(F)(F)F)cc3F)c3nccn3n2)c(=O)[nH]1` (racemic) [Example 165, 5-(8-((1S,2S)-2-(2-fluoro-4-(trifluoromethyl)phenyl)cyclopropyl)imidazo[1,2-b]pyridazin-6-yl)pyrimidine-2,4(1H,3H)-dione] registered a concentration for half-maximal inhibition (IC50) of 5.06 nM.

In turn, `O=c1[nH]cc(-c2cc([C@H]3C[C@@H]3c3ncc(C(F)(F)F)cn3)c3nccn3n2)c(=O)[nH]1` (racemic) [Example 377, 5-(8-((1S,2S)-2-(5-(trifluoromethyl)pyrimidin-2-yl)cyclopropyl)imidazo[1,2-b]pyridazin-6-yl)pyrimidine-2,4(1H,3H)-dione] yielded a 50% inhibitory concentration (IC50) of 7.66 nM.

Take `O=C(c1ccc([C@H]2C[C@@H]2c2cc(-c3c[nH]c(=O)[nH]c3=O)nn3ccnc23)cc1)N1CCC1` (racemic) [Example 289, 5-(8-((1S,2S)-2-(4-(azetidine-1-carbonyl)phenyl)cyclopropyl)imidazo[1,2-b]pyridazin-6-yl)pyrimidine-2,4(1H,3H)-dione]: the IC50 was found to be 2.27 nM. `N#Cc1cc([C@H]2C[C@@H]2c2cc(-c3c[nH]c(=O)[nH]c3=O)nn3ccnc23)ccc1OC(F)(F)F` (racemic) [Example 414, 5-((1S,2S)-2-(6-(2,4-dioxo-1,2,3,4-tetrahydropyrimidin-5-yl)imidazo[1,2-b]pyridazin-8-yl)cyclopropyl)-2-(trifluoromethoxy)benzonitrile] displayed an IC50 of 2.84 nM. In turn, `O=c1[nH]cc(-c2cc([C@H]3C[C@@H]3c3ccc4ncsc4c3)c3nccn3n2)c(=O)[nH]1` (racemic) [Example 276, 5-(8-((1S,2S)-2-(benzo[d]thiazol-6-yl)cyclopropyl)imidazo[1,2-b]pyridazin-6-yl)pyrimidine-2,4(1H,3H)-dione] came in with an IC50 of 0.91 nM. In turn, `CC1CN(C(=O)c2ccc([C@H]3C[C@@H]3c3cc(-c4c[nH]c(=O)[nH]c4=O)nn4ccnc34)cc2)C1` (racemic) [Example 290, 5-(8-((1S,2S)-2-(4-(3-methylazetidine-1-carbonyl)phenyl)cyclopropyl)imidazo[1,2-b]pyridazin-6-yl)pyrimidine-2,4(1H,3H)-dione] yielded an IC50 of 3.46 nM. Compound `N#Cc1ccc(F)c([C@H]2C[C@@H]2c2cc(-c3c[nH]c(=O)[nH]c3=O)nn3ccnc23)c1` (racemic) [Example 466, 3-((1S,2S)-2-(6-(2,4-dioxo-1,2,3,4-tetrahydropyrimidin-5-yl)imidazo[1,2-b]pyridazin-8-yl)cyclopropyl)-4-fluorobenzonitrile] had an IC50 of 3.47 nM. On to `O=c1[nH]cc(-c2cc([C@H]3C[C@@H]3c3cc4c(cnn4CC(F)(F)F)cc3F)c3ncc(F)n3n2)c(=O)[nH]1` [Example 613, 5-(3-fluoro-8-((1S,2S)-2-(5-fluoro-1-(2,2,2-trifluoroethyl)-1H-indazol-6-yl)cyclopropyl)imidazo[1,2-b]pyridazin-6-yl)pyrimidine-2,4(1H,3H)-dione], for which the IC50 was 0.58 nM.

`O=C1N(CC2(F)CC2)c2cc([C@H]3C[C@@H]3c3cc(-c4c[nH]c(=O)[nH]c4=O)nn4c(F)cnc34)ccc2C12CC2` (racemic) [Example 735, 5-(3-fluoro-8-((1S,2S)-2-(1′-((1-fluorocyclopropyl)methyl)-2′-oxospiro[cyclopropane-1,3′-indolin]-6′-yl)cyclopropyl)imidazo[1,2-b]pyridazin-6-yl)pyrimidine-2,4(1H,3H)-dione] displayed an IC50 of 2.94 nM.

The compound `O=c1[nH]cc(-c2cc([C@H]3C[C@@H]3c3ccc(OC(F)(F)F)cc3)c3nccn3n2)c(=O)[nH]1` (racemic) [Example 359, 5-(8-((1S,2S)-2-(4-(trifluoromethoxy)phenyl)cyclopropyl)imidazo[1,2-b]pyridazin-6-yl)pyrimidine-2,4(1H,3H)-dione] yielded an IC50 of 1.74 nM. With `O=C(c1ccc([C@H]2C[C@@H]2c2cc(-c3c[nH]c(=O)[nH]c3=O)nn3ccnc23)cc1)N1CCC(F)(F)C1` (racemic) [Example 305, 5-(8-((1S,2S)-2-(4-(3,3-difluoropyrrolidine-1-carbonyl)phenyl)cyclopropyl)imidazo[1,2-b]pyridazin-6-yl)pyrimidine-2,4(1H,3H)-dione] the figure was 4.81 nM; with `N#Cc1ccc([C@H]2C[C@@H]2c2cc(-c3c[nH]c(=O)[nH]c3=O)nn3ccnc23)cc1C(F)(F)F` (racemic) [Example 411, 4-((1S,2S)-2-(6-(2,4-dioxo-1,2,3,4-tetrahydropyrimidin-5-yl)imidazo[1,2-b]pyridazin-8-yl)cyclopropyl)-2-(trifluoromethyl)benzonitrile], 6.11 nM.
